From patent publication US7996156B2, “Methods for predicting properties of molecules” (priority 2002, dated 2011)
Like-named read-outs stand apart in the source and are kept apart here.

Assays:
[1] = Minimum inhibitory concentration of cephalosporin antibiotics; assay type: cell-based; parameters: unit not given here
Source text: This example describes the application of the disclosed CoSCoSA methods to model the minimum inhibitory concentration of cephalosporin antibotics, using only the through-bond (COSY-type) connections between carbons and between carbons and nitrogens in their structures. Bin sizes of 3 ppm by 3 ppm for carbon to carbon bins were used, and 10 ppm by 3 ppm for the nitrogen to carbon bins. […] The structures of the cephalosporins used in the model are shown below.

[2] = parameters: unit not given here; details: Minimal Inhibitory Concentration; cited from earlier work
estrogen receptor = details: cited from earlier work
[3] = biological target: T1, aryl hydrocarbon receptor (AhR) (Rattus norvegicus, UniProt P41738); details: rodent hepatic cytosol, cited from earlier work
T1 construct: rodent hepatic cytosol as a source of the AhR; from tissue; host or cells: rodent hepatic cytosol
T1 sequence (P41738 10-853): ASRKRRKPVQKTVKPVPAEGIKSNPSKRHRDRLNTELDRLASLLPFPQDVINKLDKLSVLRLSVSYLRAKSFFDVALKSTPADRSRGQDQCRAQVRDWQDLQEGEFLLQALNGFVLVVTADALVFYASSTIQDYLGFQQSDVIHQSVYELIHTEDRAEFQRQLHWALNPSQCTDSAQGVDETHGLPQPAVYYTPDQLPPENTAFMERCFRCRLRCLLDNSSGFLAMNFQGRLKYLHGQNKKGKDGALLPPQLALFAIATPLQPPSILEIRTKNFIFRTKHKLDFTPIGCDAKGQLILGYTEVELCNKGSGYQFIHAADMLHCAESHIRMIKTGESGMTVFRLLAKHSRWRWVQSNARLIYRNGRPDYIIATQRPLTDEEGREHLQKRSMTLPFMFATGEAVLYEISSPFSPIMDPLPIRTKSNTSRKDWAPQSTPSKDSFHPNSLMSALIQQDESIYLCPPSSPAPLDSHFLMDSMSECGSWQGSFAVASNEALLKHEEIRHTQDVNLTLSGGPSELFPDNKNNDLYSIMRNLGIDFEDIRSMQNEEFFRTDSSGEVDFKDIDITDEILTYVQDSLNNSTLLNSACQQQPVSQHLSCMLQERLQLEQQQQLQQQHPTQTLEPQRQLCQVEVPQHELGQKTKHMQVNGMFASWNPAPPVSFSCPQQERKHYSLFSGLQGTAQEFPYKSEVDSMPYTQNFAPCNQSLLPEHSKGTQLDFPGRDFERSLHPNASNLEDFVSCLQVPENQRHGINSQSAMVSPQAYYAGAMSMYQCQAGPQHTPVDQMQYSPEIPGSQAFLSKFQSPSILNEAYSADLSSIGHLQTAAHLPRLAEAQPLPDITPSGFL

[4] = experimental values of Waller et al. and Kuiper et al. external test sets, normalized to NCTR data
[5] = log scale, competitive binding, [3H]-2,3,7,8-tetrachlorodioxin, previously reported training data
[6] = previously reported competitive in vitro AhR binding, [3H]-2,3,7,8-tetrachlorodioxin radioligand, values are log EC50

For `COCC1=C(C(=O)O)N2C(=O)[C@@H](NC(=O)/C(=N\OC)c3csc(N)n3)[C@H]2SC1` [Cefpodoxime], which “Log(1/MIC)” value [1] is on record?
Its value is “−.30”.

Which MIC [2] does the source give for `CO/N=C(\C(=O)N[C@@H]1C(=O)N2C(C(=O)O)=C(COC(N)=O)CS[C@H]12)c1ccco1` [Cefuroxime] here?
Its MIC is 4.

What about the “Log(1/MIC)” value [1] of the same molecule?
Its value is “−.60”.

Which results are given for `CO[C@@]1(NC(=O)Cc2cccs2)C(=O)N2C(C(=O)O)=C(COC(N)=O)CS[C@@H]21` [Cefoxitin]?
MIC [2]: 16; Log(1/MIC) [1]: −1.20

With `O=C(c1ccc(OCCN2CCCCC2)cc1)c1c(-c2ccc(O)cc2)sc2cc(O)ccc12` [Raloxifene] as the molecule, how does the “Normalized log (RBA)” value (estrogen receptor; [4]) read?
The value was 1.34.

For `N[C@@H](C(=O)N[C@@H]1C(=O)N2C(C(=O)O)=C(Cl)CS[C@H]12)c1ccccc1` [Cefaclor], which MIC [2] is on record?
The MIC was 8.

And the “Log(1/MIC)” value [1]?
Its value is “−.90”.

With `C=CC1=C(C(=O)O)N2C(=O)[C@@H](NC(=O)/C(=N\OCC(=O)O)c3csc(N)n3)[C@H]2SC1` [Cefixime] as the molecule, how does the “Log(1/MIC)” value [1] read?
Its value is “−.90”.

With `CO[C@@]1(NC(=O)C2SC(=C(C(N)=O)C(=O)O)S2)C(=O)N2C(C(=O)O)=C(CSc3nnnn3C)CS[C@@H]21` (stereo partly drawn) [Cefotetan] as the molecule, how does the “Log(1/MIC)” value [1] read?
The value was −1.20.

Which “Normalized log (RBA)” value (estrogen receptor; [4]) does the source give for `Clc1ccc(Cl)c(-c2cc(Cl)ccc2Cl)c1` [2,2′5,5′-tetraCl-biphenyl] here?
The value was −2.67.

With `CCC1=C(c2ccc(O)cc2)[C@@H](C)c2cc(O)ccc21` [Indenestrol A (S)] as the molecule, how does the “Normalized log (RBA)” value (estrogen receptor; [4]) read?
The value was 2.39.

Which “Normalized log (RBA)” value (estrogen receptor; [4]) does the source give for `CC(C)(C)c1cccc(O)c1` [3-tert-butylphenol] here?
Its value is −4.82.

For `Oc1cc(Cl)c(-c2c(Cl)ccc(Cl)c2Cl)c(Cl)c1Cl` [2,2′,3,3′,6,6′-hexaCl-4-biphenylol], which “Normalized log (RBA)” value (estrogen receptor; [4]) is on record?
The value was −2.74.

With `Oc1ccc(-c2c(Cl)cccc2Cl)cc1` [2,6-dichloro-4′-biphenylol] as the molecule, how does the “Normalized log (RBA)” value (estrogen receptor; [4]) read?
Its value is −1.11.

With `Oc1ccc(-c2ccc(O)cc2Cl)cc1` [2-Cl-4,4′-biphenyldiol] as the molecule, how does the “Normalized log (RBA)” value (estrogen receptor; [4]) read?
Its value is −0.61.

Which MIC [2] does the source give for `CCN1CCN(C(=O)N[C@@H](C(=O)N[C@@H]2C(=O)N3C(C(=O)O)=C(CSc4nnnn4C)CS[C@H]23)c2ccc(O)cc2)C(=O)C1=O` [Cefaperazone] here?
The MIC was 16.

And the “Log(1/MIC)” value [1]?
The value was −1.20.

Which “Normalized log (RBA)” value (estrogen receptor; [4]) does the source give for `Oc1c(Cl)cc(Cl)c(Cl)c1-c1cc(Cl)cc(Cl)c1Cl` [2,2′,3,3′,5,5′-heaxCl-6′-biphenylol] here?
The value was −2.69.

Which “Normalized log (RBA)” value (estrogen receptor) does the source give for `C[C@]12CC[C@H]3[C@@H](CC=C4C[C@@H](O)CC[C@@]43C)[C@@H]1CC[C@@H]2O` [5-Androstenediol] here?
The value was −0.49.

For `CC12CCC3c4ccc(O)cc4CCC3C1CC(Br)C2O` (stereo not drawn) [16a-bromoestradiol], which “Normalized log (RBA)” value (estrogen receptor; [4]) is on record?
Its value is 1.41.

With `CC(=O)OCC1=C(C(=O)O)N2C(=O)[C@@H](NC(=O)Cc3cccs3)[C@H]2SC1` [Cephalothin] as the molecule, how does the MIC [2] read?
The MIC was 8.

And the “Log(1/MIC)” value [1]?
The value was “−.90”.

With `Oc1ccc(-c2c(Cl)cc(Cl)cc2Cl)cc1` [2,4,6,-triCl-4′-biphenylol] as the molecule, how does the “Normalized log (RBA)” value (estrogen receptor; [4]) read?
The value was −0.16.

For `CC(C)(O/N=C(\C(=O)N[C@@H]1C(=O)N2C(C(=O)[O-])=C(C[n+]3ccccc3)CS[C@H]12)c1csc(N)n1)C(=O)O` [Ceftazidime], which MIC [2] is on record?
Its MIC is 16.

What about the “Log(1/MIC)” value [1] of the same molecule?
The value was −1.20.

Which results are given for `Clc1cc(Cl)c(-c2cc(Cl)c(Cl)cc2Cl)cc1Cl` [2,2′,4,4′,5,5′-hexaCl-biphenyl]?
Normalized log (RBA) (estrogen receptor; [4]): −2.83; Experimental Log EC50 [3, 5]: −5.10; Experimental Log EC50 [3, 6]: −5.10

For `CO[C@@]1(NC(=O)CSCC#N)C(=O)N2C(C(=O)O)=C(CSc3nnnn3C)CS[C@@H]21` [Cefmetazole], which MIC [2] is on record?
The MIC was 16.

What about the “Log(1/MIC)” value [1] of the same molecule?
The value was −1.20.

Which “Normalized log (RBA)” value (estrogen receptor; [4]) does the source give for `Clc1cc(Cl)c(-c2c(Cl)cc(Cl)cc2Cl)c(Cl)c1` [2,2′,4,4′,6,6′-hexaCl-biphenyl] here?
Its value is −1.87.

Which MIC [2] does the source give for `CC1=C(C(=O)O)N2C(=O)[C@@H](NC(=O)[C@H](N)c3ccccc3)[C@H]2SC1` [Cephalexin] here?
Its MIC is 8.

And the “Log(1/MIC)” value [1]?
The value was “−.90”.

Which MIC [2] does the source give for `CC1=C(C(=O)O)N2C(=O)[C@@H](NC(=O)[C@H](N)C3=CCC=CC3)[C@H]2SC1` [Cephradine] here?
Its MIC is 8.

What about the “Log(1/MIC)” value [1] of the same molecule?
Its value is “−.90”.

With `Oc1cc(Cl)c(-c2c(Cl)cc(Cl)cc2Cl)c(Cl)c1Cl` [2,2′,3,4′,6,6′-hexaCl-4-biphenylol] as the molecule, how does the “Normalized log (RBA)” value (estrogen receptor; [4]) read?
The value was −2.60.

For `CO/N=C(\C(=O)N[C@@H]1C(=O)N2C(C(=O)O)=CCS[C@H]12)c1csc(N)n1` [Ceftizoxime], which MIC [2] is on record?
Its MIC is 8.

And the “Log(1/MIC)” value [1]?
The value was “−.90”.

Which results are given for `Clc1cc(Cl)c2c(c1)oc1cc(Cl)c(Cl)c(Cl)c12` [1,2,3,7,9-pentaCl-dibenzofuran]?
Experimental Log EC50 [3, 5]: −7.40; Experimental Log EC50 [3, 6]: −7.40

With `CCC1=C(c2ccc(O)cc2)[C@H](C)c2cc(O)ccc21` [Indenestrol A (R)] as the molecule, how does the “Normalized log (RBA)” value (estrogen receptor; [4]) read?
The value was 1.08.

With `CC(=O)OCC1=C(C(=O)O)N2C(=O)[C@@H](NC(=O)CSc3ccncc3)[C@H]2SC1` [Cephapirin] as the molecule, how does the MIC [2] read?
Its MIC is 8.

And the “Log(1/MIC)” value [1]?
The value was “−.90”.

What does the source list for `Clc1ccc2c(c1)oc1cc(Cl)c(Cl)c(Cl)c12` [1,2,3,7-tetraCl-dibenzofuran]?
Experimental Log EC50 [3, 5]: −7.96; Experimental Log EC50 [3, 6]: −7.96

With `CCC(=O)[C@@]1(C)CC[C@H]2[C@@H]3CCC4=CC(=O)CCC4=C3CC[C@@]21C` [R 5020] as the molecule, how does the “Normalized log (RBA)” value (estrogen receptor; [4]) read?
Its value is −1.81.

Which results are given for `Clc1c(Cl)c(Cl)c2c(c1Cl)Oc1c(Cl)c(Cl)c(Cl)c(Cl)c1O2` [octaCl-dibenzodioxin]?
Experimental Log EC50 [3, 5]: −6.00; Experimental Log EC50 [3, 6]: −6.00

Which “Normalized log (RBA)” value (estrogen receptor; [4]) does the source give for `C[C@H]1CCCC(=O)CCC/C=C/c2cc(O)cc(O)c2C(=O)O1` [Zearalenone] here?
Its value is 0.91.

For `Oc1ccc(-c2c(Cl)c(Cl)c(O)c(Cl)c2Cl)cc1` [2,3,5,6,tetraCl-4,4′-biphenyldiol], which “Normalized log (RBA)” value (estrogen receptor; [4]) is on record?
The value was −2.18.

Which “Experimental Log EC50” value [3, 5] does the source give for `Clc1ccc(-c2ccc(Cl)c(Cl)c2Cl)cc1` [2,3,4,4′-tetraCl-biphenyl] here?
The value was −5.55.

And the “Experimental Log EC50” value [3, 6]?
Its value is −5.55.

For `Clc1ccc(-c2cc(Cl)c(Cl)c(Cl)c2)cc1Cl` [3,3′,4,4′,5-pentaCl-biphenyl], which “Experimental Log EC50” value [3, 5] is on record?
Its value is −7.92.

And the “Experimental Log EC50” value [3, 6]?
The value was −7.92.

Which results are given for `Clc1cc2c(oc3cc(Cl)c(Cl)c(Cl)c32)c(Cl)c1Cl` [1,2,3,6,7,8-hexaCl-dibenzofuran]?
Experimental Log EC50 [3, 5]: −7.57; Experimental Log EC50 [3, 6]: −7.57

What does the source list for `Clc1ccc2c(c1)Oc1cc(Cl)c(Cl)cc1O2` [2,3,7-triCl-dibenzodioxin]?
Experimental Log EC50 [3, 5]: −8.15; Experimental Log EC50 [3, 6]: −8.15

What does the source list for `Clc1cc(Cl)c2c(c1)Oc1cc(Cl)c(Cl)cc1O2` [1,3,7,8-tetraCl-dibenzodioxin]?
Experimental Log EC50 [3, 5]: −7.10; Experimental Log EC50 [3, 6]: −7.10

Which “Experimental Log EC50” value [3, 5] does the source give for `Clc1ccc(-c2cc(Cl)c(Cl)cc2Cl)cc1Cl` [2,3′,4,4′,5-pentaCl-biphenyl] here?
The value was −6.04.

And the “Experimental Log EC50” value [3, 6]?
The value was −6.04.

With `C[C@]12CC[C@@H]3c4ccc(O)cc4CC[C@H]3[C@@H]1CC(=O)[C@@H]2O` [16-ketoestradiol] as the molecule, how does the “Normalized log (RBA)” value (estrogen receptor) read?
The value was −0.38.

What does the source list for `Clc1ccc(-c2ccc(Cl)c(Cl)c2Cl)cc1Cl` [2′,3′4,4′,5-pentaCl-biphenyl]?
Experimental Log EC50 [3, 5]: −5.85; Experimental Log EC50 [3, 6]: −5.85

For `Oc1cc(Cl)c(-c2c(Cl)cccc2Cl)c(Cl)c1Cl` [2,2′,3,6,6′-pentaCl-4-biphenylol], which “Normalized log (RBA)” value (estrogen receptor; [4]) is on record?
Its value is −1.97.

For `Clc1ccc2oc3c(Cl)cc(Cl)c(Cl)c3c2c1` [1,2,4,8-tetraCl-dibenzofuran], which “Experimental Log EC50” value [3, 5] is on record?
The value was −6.00.

And the “Experimental Log EC50” value [3, 6]?
Its value is −6.00.
